Laboratory results taken from ChEMBL document CHEMBL1201862, “PubChem BioAssay data set” (2004).
Activity calls are given as the source filed them.

How the values were obtained:
[1] = molecular target: Voltage-dependent T-type calcium channel subunit alpha-1H (Homo sapiens, UniProt O95180); assay type: functional;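 also: channel activity triggered by adding a high calcium stimulation buffer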
[2] = molecular target: T1, High affinity choline transporter 1 (Homo sapiens, UniProt Q9GZV3); assay: CHT inhibitors, dose response, cell-based, 5-point CRC, membrane potential dye (AID 504840); assay type: functional
T1 sequence (Q9GZV3 whole entry): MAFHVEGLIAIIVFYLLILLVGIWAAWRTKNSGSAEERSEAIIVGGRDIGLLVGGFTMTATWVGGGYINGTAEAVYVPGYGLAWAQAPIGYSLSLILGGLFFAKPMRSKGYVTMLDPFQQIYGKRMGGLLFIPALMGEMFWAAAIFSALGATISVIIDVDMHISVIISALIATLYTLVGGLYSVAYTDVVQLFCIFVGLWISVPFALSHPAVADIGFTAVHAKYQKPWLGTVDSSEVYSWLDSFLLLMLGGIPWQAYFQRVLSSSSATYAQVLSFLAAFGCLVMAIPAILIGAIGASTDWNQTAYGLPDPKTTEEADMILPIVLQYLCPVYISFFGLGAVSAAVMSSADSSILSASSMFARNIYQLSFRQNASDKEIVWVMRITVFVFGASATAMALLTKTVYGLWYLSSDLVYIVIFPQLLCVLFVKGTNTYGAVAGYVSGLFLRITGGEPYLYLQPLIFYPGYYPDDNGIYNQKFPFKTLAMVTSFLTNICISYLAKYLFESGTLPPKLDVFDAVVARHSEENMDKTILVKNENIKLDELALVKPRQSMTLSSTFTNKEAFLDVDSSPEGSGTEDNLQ

Aminopeptidase N = molecular target: T2, Aminopeptidase N (Plasmodium falciparum FcB1/Columbia, UniProt O96935); assay: P. falciparum M1AAP inhibitors, biochemical, fluorogenic H-Leu-NHMec substrate, 1536-well (AID 1445); parameters: species or system Plasmodium falciparum 3D7, 3D7
T2 sequence (O96935 whole entry): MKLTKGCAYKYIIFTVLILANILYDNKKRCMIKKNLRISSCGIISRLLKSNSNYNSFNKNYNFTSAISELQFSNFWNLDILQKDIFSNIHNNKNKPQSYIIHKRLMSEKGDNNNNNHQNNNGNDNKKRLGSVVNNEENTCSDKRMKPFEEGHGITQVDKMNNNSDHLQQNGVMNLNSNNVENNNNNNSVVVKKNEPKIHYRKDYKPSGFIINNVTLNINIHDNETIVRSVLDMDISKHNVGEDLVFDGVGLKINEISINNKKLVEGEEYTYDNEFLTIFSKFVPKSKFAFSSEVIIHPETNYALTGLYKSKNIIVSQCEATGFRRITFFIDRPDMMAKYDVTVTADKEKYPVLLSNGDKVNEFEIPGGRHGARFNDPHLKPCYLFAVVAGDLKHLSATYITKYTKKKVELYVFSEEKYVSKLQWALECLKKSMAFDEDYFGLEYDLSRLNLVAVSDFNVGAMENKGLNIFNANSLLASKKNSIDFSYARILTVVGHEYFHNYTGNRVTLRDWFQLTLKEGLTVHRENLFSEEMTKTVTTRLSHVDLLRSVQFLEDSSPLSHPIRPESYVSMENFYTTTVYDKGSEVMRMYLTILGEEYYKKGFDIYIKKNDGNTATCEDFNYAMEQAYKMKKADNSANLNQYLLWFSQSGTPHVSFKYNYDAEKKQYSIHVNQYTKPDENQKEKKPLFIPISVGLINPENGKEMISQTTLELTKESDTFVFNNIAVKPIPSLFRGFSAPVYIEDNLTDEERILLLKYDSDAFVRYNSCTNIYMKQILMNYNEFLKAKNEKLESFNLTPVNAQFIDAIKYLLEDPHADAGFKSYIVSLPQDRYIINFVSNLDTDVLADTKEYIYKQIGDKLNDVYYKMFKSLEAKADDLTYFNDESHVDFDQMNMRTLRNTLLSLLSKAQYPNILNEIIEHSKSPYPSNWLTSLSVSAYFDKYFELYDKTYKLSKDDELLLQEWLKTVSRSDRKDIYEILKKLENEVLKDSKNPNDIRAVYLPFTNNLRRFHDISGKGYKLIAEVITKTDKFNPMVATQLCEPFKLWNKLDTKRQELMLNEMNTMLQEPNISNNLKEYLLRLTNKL

[3] = molecular target: T3, Ubiquitin-conjugating enzyme E2 N (Homo sapiens, UniProt P61088); assay type: functional;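 also: Dose-response confirmation in a TR-FRET assay detecting UBC13-driven polyubiquitin chain formation, inhibition measured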
T3 sequence (P61088 whole entry): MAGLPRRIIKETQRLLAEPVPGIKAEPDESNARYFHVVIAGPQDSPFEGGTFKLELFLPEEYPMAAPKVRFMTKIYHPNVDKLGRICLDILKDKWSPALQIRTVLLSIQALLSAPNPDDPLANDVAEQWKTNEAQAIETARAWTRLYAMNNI

[4] = Shn3 3'UTR reporter inhibitors, dose response, cell-based, Clone20 osteoblasts, firefly luciferase, cherry-picked (AID 624132); assay type: functional;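 also: firefly luciferase luminescence from reporter carrying the Shn3 3'UTR in osteoblasts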
[5] = HepG2 cell cytotoxicity, dose response, cytotoxicity control for Shn3 inhibitor project, CellTiter-Glo, cherry-picked (AID 624134); assay type: functional, cell-based
[6] = control 3'UTR Renilla luciferase suppression, dose response, counter-screen for Shn3 inhibitor project, cell-based, Clone20-Shn3RL, cherry-picked (AID 624133); assay type: functional
P388/ADR = assay: cells; assay type: functional; details: Mus musculus
SN12K1 = assay: cells; assay type: functional; details: Homo sapiens
P388 = assay: cells; assay type: functional; details: Mus musculus
[7] = HEp-2 cell cytotoxicity, dose response, cytotoxicity control for RSV inhibitor project, HTS (AID 2410); assay type: functional; details: human respiratory syncytial virus
[8] = inhibitors of firefly luciferase expression or activity, dose response, H4 neuroglioma cells, luminescence (AID 1990); assay type: functional, cell-based
[9] = Luminescence Cell-Based Dose Response HTS to Identify Inhibitors of 5'UTR Stem-Loop Driven Prion Protein mRNA Translation in H4 Neuroglioblastoma Cells. [Related pubchem assays: 1827 (Project Summary), 1813 (Primary HTS)]; assay type: functional
[10] = inhibitors of SNCA 5'UTR-driven reporter translation, confirmation, H4 neuroglioma cells, luminescence (AID 1988); assay type: functional, cell-based
[11] = molecular target: T4, Heat shock factor protein 1 (Mus musculus, UniProt P38532); assay: HSF1 potentiators in luciferase reporter cells, confirmation, cell-based, NIH3T3, luminescence, dose retest (AID 435004); assay type: functional;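 also: stress induced by proteasome inhibitor MG132 added 30 min after compound; luciferase reporter driven by HSF1 response element in NIH3T3 cells; actives raise luminescence as potentiators of the MG132 stress response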
T4 sequence (P38532 whole entry): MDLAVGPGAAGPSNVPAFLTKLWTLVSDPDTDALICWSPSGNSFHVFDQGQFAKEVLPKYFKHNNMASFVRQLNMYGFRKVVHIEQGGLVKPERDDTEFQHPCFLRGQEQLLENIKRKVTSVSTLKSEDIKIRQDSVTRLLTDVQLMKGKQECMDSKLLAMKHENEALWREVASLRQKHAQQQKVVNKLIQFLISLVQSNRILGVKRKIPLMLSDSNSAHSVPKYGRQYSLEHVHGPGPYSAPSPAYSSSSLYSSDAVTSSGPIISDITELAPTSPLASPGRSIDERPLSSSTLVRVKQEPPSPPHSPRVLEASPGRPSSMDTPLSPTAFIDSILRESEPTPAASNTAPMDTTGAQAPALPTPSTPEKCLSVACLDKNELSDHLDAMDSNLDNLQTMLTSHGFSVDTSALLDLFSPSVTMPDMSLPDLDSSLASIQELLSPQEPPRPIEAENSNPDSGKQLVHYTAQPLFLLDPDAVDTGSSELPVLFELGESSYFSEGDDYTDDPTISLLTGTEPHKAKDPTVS

[12] = NIH-3T3 fibroblast cytotoxicity, dose response, cytotoxicity control, cell-based, fluorescence, Alamar Blue, secondary assay (AID 2327); assay type: functional;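 also: NIH-3T3 mouse fibroblasts cultured with fluconazole at 8 µg/mL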
[13] = C. albicans growth with fluconazole, confirmation, fluorescence, retest (AID 2467); assay type: functional, cell-based
[14] = molecular target: T5, Corticotropin-releasing factor receptor 2/Corticotropin-releasing factor-binding protein (Homo sapiens, UniProt P24387+Q13324); assay: Dose Response confirmation of uHTS hits for small molecule antagonists of the CRF-binding protein and CRF-R2 receptor complex.; assay type: functional; details: read-out: IC50_Mean
T5 sequence (Q13324 whole entry): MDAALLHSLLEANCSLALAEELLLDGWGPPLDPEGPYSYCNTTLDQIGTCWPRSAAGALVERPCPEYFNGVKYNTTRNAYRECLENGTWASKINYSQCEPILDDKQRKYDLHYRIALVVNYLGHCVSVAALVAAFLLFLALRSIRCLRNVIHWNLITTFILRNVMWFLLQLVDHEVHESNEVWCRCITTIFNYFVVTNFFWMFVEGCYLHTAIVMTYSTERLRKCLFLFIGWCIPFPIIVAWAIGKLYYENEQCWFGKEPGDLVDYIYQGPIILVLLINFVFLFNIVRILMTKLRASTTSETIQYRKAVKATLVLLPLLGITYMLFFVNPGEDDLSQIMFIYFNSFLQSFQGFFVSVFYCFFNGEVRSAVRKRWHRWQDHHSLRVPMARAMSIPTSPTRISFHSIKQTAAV
T5 sequence (P24387 whole entry): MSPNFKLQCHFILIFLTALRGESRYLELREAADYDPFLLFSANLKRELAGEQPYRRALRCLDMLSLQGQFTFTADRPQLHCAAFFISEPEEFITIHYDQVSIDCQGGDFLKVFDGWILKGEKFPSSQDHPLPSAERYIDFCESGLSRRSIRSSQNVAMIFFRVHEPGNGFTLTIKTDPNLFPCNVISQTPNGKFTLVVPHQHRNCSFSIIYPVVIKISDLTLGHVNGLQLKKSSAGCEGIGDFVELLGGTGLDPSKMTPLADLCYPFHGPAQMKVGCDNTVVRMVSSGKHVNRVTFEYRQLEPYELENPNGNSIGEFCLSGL

[15] = molecular target: T5, Corticotropin-releasing factor receptor 2/Corticotropin-releasing factor-binding protein; assay: activators of CRF receptor 2 with binding protein – uHTS hits, confirmation (AID 602473); assay type: functional; details: read-out: EC50_Mean

Voltage-dependent T-type calcium channel subunit alpha-1H, sequence (O95180 whole entry): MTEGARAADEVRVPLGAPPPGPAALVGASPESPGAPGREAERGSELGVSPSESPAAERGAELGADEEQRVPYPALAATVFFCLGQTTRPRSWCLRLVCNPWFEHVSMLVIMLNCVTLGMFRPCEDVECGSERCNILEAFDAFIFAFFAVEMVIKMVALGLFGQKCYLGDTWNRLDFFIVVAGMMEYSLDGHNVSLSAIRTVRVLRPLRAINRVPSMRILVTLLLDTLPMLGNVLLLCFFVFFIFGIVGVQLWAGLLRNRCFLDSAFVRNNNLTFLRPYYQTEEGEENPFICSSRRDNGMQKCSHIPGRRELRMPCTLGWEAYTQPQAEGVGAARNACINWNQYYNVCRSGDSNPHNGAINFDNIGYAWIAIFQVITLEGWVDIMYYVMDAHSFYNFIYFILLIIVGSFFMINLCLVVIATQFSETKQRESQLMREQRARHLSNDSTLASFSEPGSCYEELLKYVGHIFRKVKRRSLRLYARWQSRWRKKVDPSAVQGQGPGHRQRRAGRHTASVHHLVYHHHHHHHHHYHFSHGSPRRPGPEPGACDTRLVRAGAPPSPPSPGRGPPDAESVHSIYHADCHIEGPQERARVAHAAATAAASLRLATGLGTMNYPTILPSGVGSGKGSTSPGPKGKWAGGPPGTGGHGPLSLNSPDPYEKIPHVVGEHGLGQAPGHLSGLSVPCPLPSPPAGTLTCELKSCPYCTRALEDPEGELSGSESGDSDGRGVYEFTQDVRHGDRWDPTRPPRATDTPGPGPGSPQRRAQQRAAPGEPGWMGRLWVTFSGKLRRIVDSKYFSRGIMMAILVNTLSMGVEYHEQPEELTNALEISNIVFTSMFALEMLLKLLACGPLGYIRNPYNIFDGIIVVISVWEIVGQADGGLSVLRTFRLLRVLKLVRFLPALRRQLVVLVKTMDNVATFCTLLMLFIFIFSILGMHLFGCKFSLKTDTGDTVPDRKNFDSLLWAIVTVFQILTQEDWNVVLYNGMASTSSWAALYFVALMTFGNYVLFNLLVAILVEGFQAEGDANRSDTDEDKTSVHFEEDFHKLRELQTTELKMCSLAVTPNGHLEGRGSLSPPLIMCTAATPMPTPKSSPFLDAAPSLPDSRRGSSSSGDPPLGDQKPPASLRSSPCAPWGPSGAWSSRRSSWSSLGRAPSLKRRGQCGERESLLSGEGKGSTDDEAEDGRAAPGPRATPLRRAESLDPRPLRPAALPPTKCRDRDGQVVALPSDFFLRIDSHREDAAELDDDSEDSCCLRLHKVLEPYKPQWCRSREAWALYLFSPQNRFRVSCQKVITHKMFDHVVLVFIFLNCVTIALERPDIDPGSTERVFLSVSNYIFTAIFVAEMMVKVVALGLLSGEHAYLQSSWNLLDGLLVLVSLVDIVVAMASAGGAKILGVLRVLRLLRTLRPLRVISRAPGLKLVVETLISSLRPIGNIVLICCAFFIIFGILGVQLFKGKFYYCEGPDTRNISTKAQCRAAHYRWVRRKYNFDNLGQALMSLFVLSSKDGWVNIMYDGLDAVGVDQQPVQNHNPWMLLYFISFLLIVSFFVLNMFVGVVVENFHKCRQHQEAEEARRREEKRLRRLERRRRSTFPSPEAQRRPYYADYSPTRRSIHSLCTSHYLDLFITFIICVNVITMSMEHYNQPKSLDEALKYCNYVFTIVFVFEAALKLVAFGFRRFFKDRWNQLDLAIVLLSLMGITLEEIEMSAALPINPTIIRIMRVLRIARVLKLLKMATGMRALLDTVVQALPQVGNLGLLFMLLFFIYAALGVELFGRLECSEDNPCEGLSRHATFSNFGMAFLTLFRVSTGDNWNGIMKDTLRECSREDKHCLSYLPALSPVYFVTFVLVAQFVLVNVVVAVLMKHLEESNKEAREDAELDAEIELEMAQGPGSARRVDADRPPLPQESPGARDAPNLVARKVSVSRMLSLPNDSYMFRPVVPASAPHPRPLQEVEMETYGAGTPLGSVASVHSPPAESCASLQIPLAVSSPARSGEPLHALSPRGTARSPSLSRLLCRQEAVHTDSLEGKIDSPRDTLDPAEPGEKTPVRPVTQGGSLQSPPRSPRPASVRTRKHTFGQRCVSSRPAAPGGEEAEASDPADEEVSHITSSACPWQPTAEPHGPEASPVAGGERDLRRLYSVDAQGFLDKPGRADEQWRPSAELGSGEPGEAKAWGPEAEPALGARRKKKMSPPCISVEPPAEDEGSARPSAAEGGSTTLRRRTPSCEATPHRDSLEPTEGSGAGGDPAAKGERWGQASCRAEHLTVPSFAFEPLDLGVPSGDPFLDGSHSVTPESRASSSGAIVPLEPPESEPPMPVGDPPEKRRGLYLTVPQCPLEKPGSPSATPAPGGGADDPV

Cc1ccc(NC(=O)CSc2nccn2Cc2ccccc2)cc1C
EC50 [1]: 2.74 µM (active)

CN(C)C1(C/N=C/c2cc(Cl)cc([N+](=O)[O-])c2O)CCCCC1
IC50 [2]: 14.5 µM (active)

CCc1nnc(NS(=O)(=O)c2ccc(NC(=S)NC(=O)c3cccs3)cc2)s1
IC50 (Aminopeptidase N): 35.4 µM (active)

CC(C)(C)OC(=O)[C@H](Cc1ccccc1)NC(=O)c1nc[nH]c1C(=O)N[C@@H](CCCCN)C(=O)OC(C)(C)C
IC50 [3]: > 20 µM (inactive)

O=C(Cc1c[nH]c2ccccc12)OCCOC(=O)Cc1c[nH]c2ccccc12
EC50 [1]: 4.77 µM (active)

NS(=O)(=O)c1ccc(CCNCc2cc(Br)ccc2OCc2ccccc2)cc1
AC50 [4]: 2.92 µM (active)
AC50 [5]: 53.7 µM (active)
AC50 [6]: 5.96 µM (active)

CCOC(=O)NC1=C(N2CC2)C(=O)C(NC(=O)OCC)=C(N2CC2)C1=O [DIAZIQUONE]
GI50 (P388/ADR): 2.72 µM (inactive)
GI50 (SN12K1): 2.94 µM (inactive)
GI50 (P388): 1.77 µM (inactive)

Cc1ccc(C)c(NC(=O)C2C(c3ccccc3)C2(Cl)Cl)c1 (stereo unspecified)
EC50 [1]: 0.968 µM (active)

CCc1ccc(N(C(=O)c2snc(C(N)=O)c2N)C(C(=O)NCC2CCCO2)c2ccco2)cc1 (stereo unspecified)
IC50 [3]: > 20 µM (inactive)

CC(=O)NC(c1ccco1)c1cc(Cl)c2ccccc2c1O (stereo unspecified)
IC50 [3]: > 20 µM (inactive)

O=C1NC(=O)C2C3C=CC(C12)C1C2C(=O)NC(=O)C2C31 (stereo unspecified)
GI50 (P388/ADR): 122 µM (inactive)
GI50 (SN12K1): 85.3 µM (inactive)
GI50 (P388): 21 µM (inactive)

CCc1nn2c(NCCOC)cc(C)nc2c1-c1ccc(F)cc1
IC50 [2]: 14.5 µM (active)

CN(C(=S)NC(=O)CCCOc1ccc(Cl)cc1Cl)c1ccccc1
EC50 [1]: 4.13 µM (active)

Cc1noc(NS(=O)(=O)c2ccc(NC(=O)C(CC(C)C)N3C(=O)c4ccccc4C3=O)cc2)c1C (stereo unspecified)
IC50 (Aminopeptidase N): 7.56 µM (active)

CC(C)CC(/C(O)=C(\C#N)c1nc2ccccc2[nH]1)N1C(=O)c2ccccc2C1=O (stereo unspecified)
CC50 [7]: 21 µM (active)
EC50 [8]: > 120 µM (not active)
EC50 [9]: > 120 µM (not active)
EC50 [10]: 12.3 µM (active)
EC50 [1]: 14.8 µM (active)
EC50 [11]: > 260 µM (inactive)

Cc1ccc(-c2nnn(CC(=O)N(c3ccccc3F)C(C(=O)NCC3CCCO3)c3c[nH]c4ccccc34)n2)cc1 (stereo unspecified)
EC50 [1]: 4 µM (active)

CCN(CC)C(=O)Cn1c(=O)n(-c2ccccc2)c(=O)c2c3c(sc21)CCC3
EC50 [12]: > 160 µM (inactive)
IC50 (Aminopeptidase N): 51.2 µM (active)
EC50 [13]: > 38 µM (not active)

O=C(CSc1nnc(-c2ccncc2)n1Cc1ccco1)c1ccc(Cl)cc1
IC50 [2]: 1.91 µM (active)

CN(C)Cc1c(O)ccc2c3c(c(=O)oc12)CCCCC3
IC50 (Aminopeptidase N): 44.5 µM (active)

Cc1ccccc1-n1c(C)cc(/C=N/NC(=O)c2ccc(CN3CCOCC3)cc2)c1C
IC50 [2]: 7.94 µM (active)

CN(CCOc1ccc(Cl)cc1)C(=O)c1cccc(S(=O)(=O)N2CCN(Cc3ccccc3)CC2)c1
AC50 [4]: 2.29 µM (active)
AC50 [5]: > 70 µM (inactive)
AC50 [6]: 3.57 µM (active)

COc1ccc(OCC(O)CNCCOc2ccccc2OC)c(C(C)(C)C)c1 (stereo unspecified)
CC50 [7]: 14.7 µM (active)
AC50 [4]: 11.6 µM (active)
AC50 [5]: 30.7 µM (active)
AC50 [6]: 19.6 µM (active)

C=C1CC2(OC1=O)c1ccccc1CCc1ccccc12
AC50 [4]: 1.28 µM (active)
AC50 [5]: 11.4 µM (active)
AC50 [6]: 5.67 µM (active)

CCCNS(=O)(=O)c1cccc(C(=O)NC2CCCc3ccccc32)c1 (stereo unspecified)
IC50 [2]: 13.5 µM (active)
IC50 [14]: > 47.1 µM (inactive)
EC50 [15]: > 53 µM (inactive)

O=C1CC(c2nc3ccccc3[nH]2)CN1c1cccc(C(F)(F)F)c1 (stereo unspecified)
EC50 [1]: 8.89 µM (active)

COC(=O)c1ccccc1NC(=O)c1cccc(NC(=O)c2ccc(Br)o2)c1C
EC50 [1]: 5.7 µM (active)

O=c1oc2c(CN3CCOCC3)c(O)ccc2c2c1CCCC2
IC50 (Aminopeptidase N): 23.7 µM (active)

COc1cccc(-c2csc(N3CCN(C(=O)NC45CC6CC(CC(C6)C4)C5)CC3)n2)c1
EC50 [1]: 5.32 µM (active)

CN(C)c1oc(-c2cccs2)nc1C#N
IC50 (Aminopeptidase N): 104 µM (active)
